pIC50: −log10 of the molar value.
Assays:
[1] = test system: MV4-11 human acute myeloid leukemia cell with FLT3-ITD mutation; assay: MV4-11 cell proliferation assay (CellTiter 96); assay type: cell-based; conditions: Homo sapiens, MV4-11, 72 h, MV4-11 cells, 72 hours treatment, CellTiter96; read-out: anti-proliferation activity MV4-11 (FLT3-ITD), IC50 ranking
Outline: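 Cells seeded at 6500/well in IMDM with 10% heat-inactivated FBS, left overnight at 37 °C, 5% CO2, then exposed to increasing compound concentrations for 72 h. Viability read as absorbance at 490 nm after 2–4 h with CellTiter96 AQueous One reagent.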

[2] = test system: Molm-14 human acute myeloid leukemia cell with FLT3-ITD mutation; assay: Molm-14 cell proliferation assay (CellTiter 96); assay type: cell-based; conditions: Homo sapiens; Molm-14 cells, 72 hours treatment, CellTiter96; read-out: anti-proliferation activity Molm-14 (FLT3-ITD), IC50 ranking
Outline: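 Molm-14 (FLT3-ITD AML) cells in RPMI 1640 with 10% heat-inactivated FBS were seeded at 25000 cells/well, incubated overnight at 37° C, 5% CO2, then treated with increasing compound concentrations for 72 hours. Viability was read as absorbance at 490 nm after 2˜4 hours with CellTiter96 AQueous One reagent.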

[3] = test system: HCC827 NSCLC cell with EGFR exon 19 deletion mutation; assay: HCC827 cell proliferation assay (counter screen); assay type: cell-based, human; conditions: Homo sapiens, HCC827 cells, 72 hours treatment, CellTiter96, read-out: anti-proliferation activity HCC827 EGFR Exon19 del, IC50 ranking
Outline: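 HCC827 cells (EGFR exon 19 deletion) were seeded at 8000 cells/well in RPMI1640 with 10% FBS, then exposed to increasing compound concentrations for 72 h at 37 °C. Viability was read by CellTiter96 AQueous One (MTS), absorbance 490 nm after 2–4 h.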

[4] = target: T1, PDGFRα kinase (Homo sapiens, UniProt P16234); assay: PDGFRα kinase assay (AlphaScreen); assay type: biochemical; conditions: read-out: Ranking of IC50 values, PDGFRα
T1 construct: purchased SignalChem
Outline: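 Recombinant PDGFRα (1.5 ng) phosphorylated biotinylated poly(Glu4:Tyr1) with 10 μM ATP in MOPS pH 7.0 with 10 mM MgCl2, 30 min at 30 °C, stopped with EDTA. Product detected by AlphaScreen; IC50 from serial dilutions run in duplicate.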

[5] = target: T2, MET kinase (Homo sapiens, UniProt P08581); assay: MET kinase assay (AlphaScreen, counter screen); assay type: biochemical; conditions: read-out: Ranking of IC50 values, MET
T2 construct: purchased SignalChem
Outline: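 Recombinant MET kinase (1 ng) phosphorylated biotinylated poly(Glu4:Tyr1) with […] ATP (so in the source) in MOPS pH 7.0 buffer with 10 mM MgCl2, 45 min at 30 °C, stopped with EDTA. Product read by AlphaScreen; IC50 from serial dilutions run in duplicate.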

[6] = test system: A375 melanoma cell with BRAF V600E mutation; assay: A375 cell proliferation assay (counter screen); assay type: cell-based, human; conditions: Homo sapiens, A-375, A375 cells, 72 hours treatment, CellTiter96, read-out: anti-proliferation activity A375 BRAF V600E, IC50 ranking
Outline: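 A375 cells (BRAF V600E) seeded at 2000 cells/well in DMEM with 10% FBS, settled overnight at 37° C, 5% CO2, then exposed to increasing compound concentrations for 72 hours. Viability read by MTS-type CellTiter96 AQueous reagent, absorbance at 490 nm after 2–4 hours.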

T2 sequence (P08581 25-1390): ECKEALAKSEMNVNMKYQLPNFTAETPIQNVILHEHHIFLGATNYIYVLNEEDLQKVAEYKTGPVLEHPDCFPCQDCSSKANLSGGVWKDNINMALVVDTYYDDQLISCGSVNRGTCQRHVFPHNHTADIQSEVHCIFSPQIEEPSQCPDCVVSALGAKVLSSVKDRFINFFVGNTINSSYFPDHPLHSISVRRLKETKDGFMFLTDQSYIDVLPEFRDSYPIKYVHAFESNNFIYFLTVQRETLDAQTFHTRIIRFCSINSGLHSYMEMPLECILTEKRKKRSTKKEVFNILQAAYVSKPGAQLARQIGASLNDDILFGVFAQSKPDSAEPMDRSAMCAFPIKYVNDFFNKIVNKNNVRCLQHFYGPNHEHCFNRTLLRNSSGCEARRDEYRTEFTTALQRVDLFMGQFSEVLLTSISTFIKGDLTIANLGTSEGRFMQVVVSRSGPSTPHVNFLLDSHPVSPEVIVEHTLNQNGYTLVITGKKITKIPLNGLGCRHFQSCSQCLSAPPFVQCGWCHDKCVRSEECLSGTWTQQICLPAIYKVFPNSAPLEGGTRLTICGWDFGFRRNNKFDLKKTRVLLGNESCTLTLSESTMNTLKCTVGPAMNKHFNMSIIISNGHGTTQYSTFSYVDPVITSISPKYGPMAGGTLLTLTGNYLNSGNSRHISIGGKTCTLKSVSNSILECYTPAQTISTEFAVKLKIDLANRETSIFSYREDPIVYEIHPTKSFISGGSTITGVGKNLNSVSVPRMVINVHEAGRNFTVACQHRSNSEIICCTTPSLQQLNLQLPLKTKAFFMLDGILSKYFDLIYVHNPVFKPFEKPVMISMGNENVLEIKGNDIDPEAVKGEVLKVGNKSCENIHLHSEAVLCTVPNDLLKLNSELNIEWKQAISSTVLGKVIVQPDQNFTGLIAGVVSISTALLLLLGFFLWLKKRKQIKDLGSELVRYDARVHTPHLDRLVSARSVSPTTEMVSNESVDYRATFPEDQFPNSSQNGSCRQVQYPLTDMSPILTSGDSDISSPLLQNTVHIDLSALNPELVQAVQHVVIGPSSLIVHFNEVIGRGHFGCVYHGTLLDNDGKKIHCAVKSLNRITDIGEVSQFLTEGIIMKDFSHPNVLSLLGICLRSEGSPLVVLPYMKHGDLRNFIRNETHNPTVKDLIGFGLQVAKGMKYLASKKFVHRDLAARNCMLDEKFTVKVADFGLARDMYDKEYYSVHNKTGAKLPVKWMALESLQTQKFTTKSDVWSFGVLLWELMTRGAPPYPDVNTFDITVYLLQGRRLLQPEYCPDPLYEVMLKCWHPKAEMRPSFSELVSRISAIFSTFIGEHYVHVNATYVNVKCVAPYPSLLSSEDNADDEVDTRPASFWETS
T1 sequence (P16234 24-1089): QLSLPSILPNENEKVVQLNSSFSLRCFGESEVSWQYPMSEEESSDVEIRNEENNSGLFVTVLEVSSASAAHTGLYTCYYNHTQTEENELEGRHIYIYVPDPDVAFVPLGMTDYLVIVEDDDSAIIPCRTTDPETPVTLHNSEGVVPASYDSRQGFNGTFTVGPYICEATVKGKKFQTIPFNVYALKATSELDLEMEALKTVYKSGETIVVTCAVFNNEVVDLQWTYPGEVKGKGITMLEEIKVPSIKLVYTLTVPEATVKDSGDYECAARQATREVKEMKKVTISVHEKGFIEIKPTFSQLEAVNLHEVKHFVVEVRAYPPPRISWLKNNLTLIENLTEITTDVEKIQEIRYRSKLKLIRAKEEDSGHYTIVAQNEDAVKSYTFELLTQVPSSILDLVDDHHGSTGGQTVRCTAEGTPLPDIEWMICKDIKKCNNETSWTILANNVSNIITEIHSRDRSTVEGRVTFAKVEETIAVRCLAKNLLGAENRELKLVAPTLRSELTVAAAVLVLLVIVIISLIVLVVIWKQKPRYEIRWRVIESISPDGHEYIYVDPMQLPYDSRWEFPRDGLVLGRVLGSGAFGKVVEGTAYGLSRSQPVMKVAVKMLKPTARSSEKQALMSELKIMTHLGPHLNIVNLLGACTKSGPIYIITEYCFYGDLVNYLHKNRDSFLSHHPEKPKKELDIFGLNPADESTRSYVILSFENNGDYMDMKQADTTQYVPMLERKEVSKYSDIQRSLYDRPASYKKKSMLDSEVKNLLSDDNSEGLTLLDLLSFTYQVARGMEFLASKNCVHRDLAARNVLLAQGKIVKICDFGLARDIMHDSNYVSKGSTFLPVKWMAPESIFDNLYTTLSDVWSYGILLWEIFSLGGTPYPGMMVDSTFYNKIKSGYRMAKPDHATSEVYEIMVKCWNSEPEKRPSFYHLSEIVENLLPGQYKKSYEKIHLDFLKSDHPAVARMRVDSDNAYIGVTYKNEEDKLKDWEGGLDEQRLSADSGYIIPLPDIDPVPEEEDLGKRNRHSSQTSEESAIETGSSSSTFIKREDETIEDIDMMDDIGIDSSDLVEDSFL

Row | SMILES | pIC50 [1] | pIC50 [2] | pIC50 [4] | pIC50 [5] | pIC50 [3] | pIC50 [6]
1 | Cn1nnc2ccc(-c3n[nH]c4c3Cc3sc(-c5ccc(CN6CCOCC6)cc5)cc3-4)cc21 [Compound 89, 4-(4-(3-(1-methyl-1H-benzo[d][1,2,3]triazol-6-yl)-1,4-dihydrothieno [2′,3′:4,5]cyclopenta [1,2-c]pyrazol-6-yl)benzyl)morpholine] | 7.00 to 7.52 | 7.00 to 7.52 | 8.00 to 9.00 | < 6.00 | < 5.00 | < 5.00
2 | COc1ccc(-c2cc3c(s2)Cc2c(-c4ccc5[nH]ncc5c4)n[nH]c2-3)cn1 [Compound 1, 3-(1H-indazol-5-yl)-6-(6-methoxypyridin-3-yl)-1,4-dihydrothieno[2′,3′:4,5] cyclopenta[1,2-c]pyrazole] | 7.00 to 7.52 | 7.00 to 7.52 | 7.52 to 8.00 | < 6.00 | < 5.00 | < 5.00

Second part, led by results:

Row | pIC50 [1] | pIC50 [2] | pIC50 [4] | pIC50 [5] | SMILES | pIC50 [3] | pIC50 [6]
3 | > 7.52 | > 7.52 | 8.00 to 9.00 | 6.00 to 6.52 | CN(C)Cc1ccc(-c2cc3c(s2)Cc2c(-c4ccc5cnn(C)c5c4)n[nH]c2-3)cc1 [Compound 94, N,N-dimethyl-1-(4-(3-(1-methyl-1H-indazol-6-yl)-1,4-dihydrothieno [2′,3′:4,5]cyclopenta [1,2-c]pyrazol-6-yl)phenyl)methanamine] | 5.00 to 6.00 | 5.00 to 6.00
4 | 7.00 to 7.52 | 6.52 to 7.00 | 6.52 to 7.00 | < 6.00 | CN(C)Cc1ccc(-c2cc3c(s2)Cc2c(-c4ccc5cnn(C)c5c4)n[nH]c2-3)cn1 [Compound 93, N,N-dimethyl-1-(5-(3-(1-methyl-1H-indazol-6-yl)-1,4-dihydrothieno [2′,3′:4,5]cyclopenta [1,2-c]pyrazol-6-yl)pyridin-2-yl)methanamine] | < 5.00 | < 5.00
5 | 6.52 to 7.00 | 6.52 to 7.00 | 7.00 to 7.52 | < 6.00 | Cc1cc(CN2CCOCC2)ccc1-c1cc2c(s1)Cc1c(-c3ccc4cnn(C)c4c3)n[nH]c1-2 [Compound 91, 4-(3-methyl-4-(3-(1-methyl-1H-indazol-6-yl)-1,4-dihydrothieno [2′,3′:4,5]cyclopenta [1,2-c]pyrazol-6-yl)benzyl)morpholine] | < 5.00 | < 5.00

Source: US12448394B2, “Heterocyclic pyrazole derivatives as type III receptor tyrosine kinase inhibitors” (DEVELOPMENT CENTER FOR BIOTECHNOLOGY, priority 2019, dated 2025)
